# Source: US20240376111A1, “COMPOSITIONS AND METHODS OF USING THE SAME FOR TREATMENT OF NEURODEGENERATIVE AND MITOCHONDRIAL DISEASE” (Mitokinin, Inc., priority 2021, published 2024)
# Like-named read-outs stand apart in the source and are kept apart here.
# Key:
# [1] = test system: HeLa cells expressing mt-Keima and YFP-Parkin (HeLa MKYP); test: Human mt-Keima mitophagy assay; type: cell-based; conditions: HeLa MKYP cells, 16 hrs with compound, then 1 uM FCCP/oligomycin for 6 hours, FACS, read-out: EC50 in HeLa mt-Keima Mitophagy Assay
# Description: Briefly, HeLa cells expressing mt-Keima and YFP-Parkin (HeLa MKYP) were plated at 10,000 cells/well in 96 well plates along with compounds at various concentrations. Following 16 hrs of incubation, cells were treated with 1 uM FCCP/oligomycin for 6 hours, then analyzed via FACS for the presence of mitochondria in lysosomes (as determined by an emissions spectrum shift from the pH-sensitive mt-Keima tag).
# [2] = test system: pS129 α-synuclein in mouse primary neurons treated with α-synuclein PFFs; test: In vitro primary neuron α-synuclein pre-formed fibril (PFF) model; type: cell-based; conditions: increasing doses, Western blot of insoluble fraction of lysates
# Description: Primary hippocampal neurons were derived following standard protocols, and treated with sonicated PFFs according to the methods in Volpicelli-Daley et al (Methods Mol Biol 2019). Following addition of PFFs or PBS on DIV7, Mitokinin compound or vehicle control was added on DIV9 and DIV12. At DIV14, cultures were harvested for biochemical analysis using either whole cell lysis buffer or fractionation buffer containing NP-40.
# For whole cell lysates, cultures were collected in WC lysis buffer [100 mM Bicine pH 8.0, 0.27M Sucrose (Sigma S-1888, FW: 342.3), 1 mM EDTA, 1 mM EGTA, 5 mM Na4P2O7 (ESB422, MW 446.06 g/mol), 100 mM Tris pH 7.5, 1% Triton X-100, 1× Halt™ Protease and Phosphatase Inhibitor Cocktail, with Benzonase (1:1000)]. Samples were incubated on ice for 30 min, sonicated, and then cleared by centrifugation at 18,000 g for 20 min at 4° C. Supernatant protein concentration was determined by BCA assay, and samples were analyzed by western blot using commercially available antibodies. Neuronal health markers included NfL, total caspase-3, cleaved caspase-3, pS65 Ub, LC3, TUJ1, and actin.
# For fractionation, cells were collected in NP-40 lysis buffer (containing 10 mM Tris-HCl, pH 7.4, 150 mM NaCl, 5 mM EDTA, 0.5% Nonidet P-40, 1× Halt™ Protease and Phosphatase Inhibitor Cocktail, with Benzonase (1:1000). Following differential centrifugation at 22,000 g for 20 min at 4° C., the NP-40 insoluble pellet was resuspended in SDS-Brain lysis buffer (containing 10 mM Tris-HCl, pH 7.4, 150 mM NaCl, 5 mM EDTA, 0.5% Nonidet P-40, 1% SDS, 0.5% sodium deoxycholate, 1× Halt™ Protease and Phosphatase Inhibitor Cocktail, with Benzonase (1:1000) and sonicated. Protein concentrations were determined using the BCA assay and samples were analyzed for pS129 α-synuclein and total α-synuclein levels by western blot.
# SKOV3 cells [3] = test: In vitro mitosafety (glucose/galactose) assay; conditions: highest mito-safe dose = highest concentration at which gal/glc>0.80 (IC20) in SKOV3 cells, divided by mt-Keima EC50
# Description: (§1) Briefly, SKOV3 cells (ATCC HTB-77) were plated in DMEM (Corning 10-013-CV) medium containing 25 mM glucose or DMEM with no glucose (Gibco 11966-025) supplemented with 10 mM galactose at 9,000 cells/well in 96 well plates (Corning costar 3610). 24 hrs later, compounds, in DMSO, were added at various concentrations to a final 0.1% DMSO for all wells. […] After a 15 minute incubation cellular ATP levels were read out using a Promega GloMax® DiscoverMicroplate Reader.
# (§2) The ratio of relative CellTiter-Glo values from cells grown in galactose to cells grown in glucose was determined (gal/glc ratio). The gal/glc ratio vs concentration is then graphed, and non-linear regression is used to find the highest concentration of MTK compound at which gal/glc>0.80 (the “highest mito-safe dose”, or IC20).
# SKOV3 cells [4] = test system: SKOV3 cells
# Description: as §1, §2
EC50 ([1]; Homo sapiens),EC50 [1],Compound,pS129 α-synuclein [2],Mito-Safety Index (highest mito-safe dose/mt-Keima EC50) (SKOV3 cells [3]),Mito-Safety Index (highest mito-safe dose/mt-Keima EC50) (SKOV3 cells [4])
0.149 µM,–,"CC(C)(F)CO[C@H]1COc2ccccc2[C@@H]1Nc1ncnc2[nH]c(C3CC3)cc12 [EP-0043180, 6-cyclopropyl-N-[(3R,4S)-3-(2-fluoro-2-methyl-propoxy)chroman-4-yl]-7H-pyrrolo[2,3-d]pyrimidin-4-amine]",significantly reduces,168.02,–
0.13 µM,–,"COCCO[C@H]1COc2ccccc2[C@@H]1Nc1ncnc2[nH]c(C3CC3)cc12 [EP-0041944, 6-cyclopropyl-N-[(3R,4S)-3-(2-methoxyethoxy)chroman-4-yl]-7H-pyrrolo[2,3-d]pyrimidin-4-amine]",significantly reduces,45.94,–
–,0.246 µM,"N-[(3R,4,S)-3-(2-methoxyethoxy)chroman-4-yl]-6-(trifluoromethyl)-7H-pyrrolo[2,3-d]pyrimidin-4-amine [EP-0042319]",significantly reduces,–,74.75
